Entries after “also recorded” stand apart in the source; their conditions may differ.
How the values were obtained:
[1] = test system: HB4a/NR cells; assay: Enzymatic reduction of CB 1954 by HB4a/NR cell lysate (HPLC); format: biochemical, human; details: 100 μM CB 1954, 500 μM NADH, pH7, 37° C., FIG. 5
Protocol: CB 1954 (100 μM) and NADH (500 μM) were incubated with a cell lysate prepared by sonication (250 μl, 1 mg/mL protein) in 10 mM sodium phosphate buffer (pH7) at 37° C. At various times aliquots (10 μl) were injected onto a Partisphere SCX (110×4.7 mm) HPLC column and eluted isocratically (2 ml/min) with 50 mM NaH2 PO4 in 1% (v/v) methanol. The eluate was continuously monitored for absorption at 260, 310, 340 nm using a diode-array detector. Alternatively, [U-^3 H]CB 1954 was added to give an activity of 1.6×10^5 dpm per nmole). Samples (0.3 ml) were collected and their tritium activity determined by liquid scintillation counting. Protein concentration was determined by a standard method (Biorad), calibrated against bovine albumin.

[2] = target: E. coli nitroreductase (Escherichia coli, UniProt P38489); assay: % drug reduction by E. coli nitroreductase during V79 cell treatment; format: biochemical; details: 2 hours at 37° C.
From the text: The initial cell density was 2×10^5 /mL.

[3] = test system: nitroreductase-transduced NIH3T3 cells; assay: Bystander effect, 3H-thymidine incorporation in mixtures of 3T3-NTR14 and untransduced NIH3T3 cells; format: cell-based; details: 50% transduced cells, FIG. 2
From the text: FIG. 2. […] Results are plotted as the quantity of ^3 H-thymidine incorporation into live cells […] (Y-axis) versus the percentage of transduced cells in the sample population (X-axis).

[4] = test system: NTR-expressing NIH3T3 cells; assay: Killing of serum-deprived (arrested) NTR-expressing NIH3T3 cells; format: cell-based; details: arrest by serum deprivation, FIG. 3a
From the text: (§1) FIG. 3. Two graphs comparing the nitroreductase/CB 1954 and thymidine kinase/gancyclovir enzyme/prodrug systems.

[5] = test system: HB4a/NR cells; assay: DNA interstrand crosslinks, sedimentation in alkaline sucrose; format: cell-based, human
Protocol: HB4a/NR cells were radiolabelled by growth for 48 hours in [^3 h]-thymidine. The cells were then treated with either 0, 10 or 50 μM CB 1954 for 24 hours and their DNA then analysed by sedimentation in alkaline sucrose.

[6] = Cell survival of HB4a/REP8 cells, plates scored by eye for cell growth; format: cell-based; details: human, 2 hour exposure, read-out: dose up to which no cytotoxicity is shown
Protocol: (§2) Cells were trypsinised and resuspended in fresh media at 2×10^5 cells per mL. They were then treated for two hours with CB 1954 (10 μl of appropriate stock in DMSO). The treated cells were then spun down, washed with fresh media, and plated out in triplicate at various concentrations. Cells were fixed and stained after 14 days incubation at 37° C. in a humidified atmosphere of 5% CO2 and 95% air.
(§3) The plating efficiency of both the HB4a/NR and HB4a/REP8 cell lines was poor and cells only grew when plated at a high initial cell density (1×10^4 per dish). These plates were scored by eye for cell growth. There is a dramatic difference in cell survival between the two cell lines.

[7] = test system: HB4a/NR cells; assay: Cell survival of HB4a/NR cells, plates scored by eye for cell growth; format: cell-based, human; details: 2 hour exposure
Protocol: as §2, §3

[8] = test system: TK-expressing NIH3T3 cells; assay: Killing of arrested TK-expressing NIH3T3 cells; format: cell-based; details: 10^-8 to 10^-3 M, FIG. 3b
From the text: as §1

[9] = test system: V79 cells
Protocol: NADH was used as a co-factor for both enzymes.
All treatments were for 2 hours at 37° C. and the cells were then plated out for their resulting colony forming ability. The nitroreductase concentration was 2 μg/ml and NADH was used as a co-factor. The initial cell density was 2×10^5 /mL.
Various concentrations of the prodrug were incubated with 1 mL of V79 cells (2×10^5 /mL), NADH (500 μL) and NR (2, 5 or 10 μg/mL) in PBS. After 2 h at 37° C., the cells were harvested and assayed for colony forming ability.

[10] = 50 μM drug + 500 μM NADH, no nitroreductase
[11] = 50 μM drug + nitroreductase 2 μg/ml + 500 μM NADH
[12] = 50 μM drug + nitroreductase 2 μg/ml, no NADH
[13] = 50 μM drug alone, no NADH, no nitroreductase

Question: For `NC(=O)c1cc(N2CC2)c([N+](=O)[O-])cc1[N+](=O)[O-]` [CB 1954, 5-(aziridin-1-yl)-2,4-dinitrobenzamide], which “decrease in the concentration of CB 1954” value [1] is on record?
Answer: Its value is “time dependent decrease”.

Question: What about the “% DRUG REDUCTION” value [2, 10] of the same molecule?
Answer: Its value is under 1.0%.

Question: What about the “% DRUG REDUCTION” value [2, 11] of the same molecule?
Answer: Its value is 72%.

Question: And the “% DRUG REDUCTION” value [2, 12]?
Answer: Its value is under 1.0%.

Question: What about the “% DRUG REDUCTION” value [2, 13] of the same molecule?
Answer: Its value is under 1.0%.

Question: And the “inhibition of 3H-thymidine incorporation” value [3]?
Answer: The value was 90%.

Question: And the “effect of cell arrest on killing by the prodrug” value [4]?
Answer: Its value is “does not affect their killing; also recorded: does not affect the relative cytotoxicity”.

Question: What about the DNA breaks ([5]; 10 μM CB 1954 for 24 hours) of the same molecule?
Answer: Its DNA breaks is 25 per 10^9 daltons of DNA.

Question: And the DNA crosslinks ([5]; 10 μM CB 1954 for 24 hours)?
Answer: Its DNA crosslinks is “about 6 per 10^9 daltons of DNA”.

Question: What about the DNA breaks ([5]; 50 μM CB 1954 for 24 hours) of the same molecule?
Answer: The DNA breaks was 28 per 10^9 daltons of DNA.

Question: And the DNA crosslinks ([5]; 50 μM CB 1954 for 24 hours)?
Answer: Its DNA crosslinks is 12 per 10^9 daltons of DNA.

Question: And the MNTC at 2 h [6]?
Answer: Its MNTC at 2 h is over 100 µM.

Question: What about the “dose at which cytotoxicity is exhibited” value [7] of the same molecule?
Answer: The value was 1.0 µM.

Question: For `Nc1nc(O)c2ncn(COC(CO)CO)c2n1` [GCV, gancyclovir], which “effect of cell arrest on killing by the prodrug” value [8] is on record?
Answer: Its value is “prevents GCV killing; also recorded: prevents gancyclovir (GCV) cytotoxicity”.

Question: Which “% DRUG REDUCTION” value [2, 10] does the source give for `NC(=O)c1cc(N(CCCl)CCCl)c([N+](=O)[O-])cc1[N+](=O)[O-]` [SN23862, 5-(bis(2'-chloroethyl)amino)-2,4-dinitrobenzamide] here?
Answer: Its value is under 1.0%.

Question: What about the “% DRUG REDUCTION” value [2, 11] of the same molecule?
Answer: Its value is 95%.

Question: And the “% DRUG REDUCTION” value [2, 12]?
Answer: Its value is under 1.0%.

Question: And the “% DRUG REDUCTION” value [2, 13]?
Answer: Its value is under 1.0%.

Question: For `Cc1c2oc3c(C)ccc(C(=O)N[C@@H]4C(=O)N[C@H](C(C)C)C(=O)N5CCC[C@H]5C(=O)N(C)CC(=O)N(C)[C@@H](C(C)C)C(=O)O[C@@H]4C)c3nc-2c(C(=O)N[C@@H]2C(=O)N[C@H](C(C)C)C(=O)N3CCC[C@H]3C(=O)N(C)CC(=O)N(C)[C@@H](C(C)C)C(=O)O[C@@H]2C)c(NC(=O)OCc2ccc([N+](=O)[O-])cc2)c1=O`, which “cytotoxicity of the prodrug in the presence of NR” value ([9]; NR 2, 5 or 10 μg/mL, NADH, 2 h at 37° C., FIG. 1) is on record?
Answer: The value was “greatly enhanced in the presence of NR”.

B1: Nitroreductase: E. coli nitroreductase, enzyme that converts the prodrug into a cytotoxic drug (protein)
chain: MDIISVALKRHSTKAFDASKKLTPEQAEQIKTLLQYSPSSTNSQPWHFIVASTEEGKARVAKSAAGNYVFNERKMLDASHVVVFCAKTAMDDVWLKLVVDQEDADGRFATPEAKAANDKGRKFFADMHRKDLHDDAEWMAKQVYLNVGNFLLGVAALGLDAVPIEGFDAAILDAEFGLKEKGYTSLVVVPVGHHSVEDFNATLPKSRLPQNITLTEV
Question: With B1 as the molecule, how does the “% SURVIVAL” value ([9]; nitroreductase 2 μg/ml alone, no drug, 2 hours at 37° C.) read?
Answer: The value was 94%.

From patent publication US5958682A (priority 1993, dated 1999)
